Measured values taken from article PMC10287183 (Antiviral Research, 2023).
Where two headings read alike, the source gives them in different places.

Columns and labels:
SARS-CoV2 D614G = format: cell-based, SARS-CoV-2; conditions: for EC90: read-out: EC90 (mean ± SD)
in vitro = conditions: human
SARS-CoV-2 D614G = format: cell-based

In the case of `CCN(CCO)CCCC(C)Nc1ccnc2cc(Cl)ccc12` (centres unmarked) [Hydroxychloroquin, Hydroxychloroquine], the “Highest % of Virus Inhibition” value (SARS-CoV2 D614G) is reported as 98%, the EC90 (SARS-CoV2 D614G) is reported as 18.9 ± 2.3 µM and the CC50 (in vitro) is reported as greater than 100 µM.
In the case of `O=[N+]([O-])c1ccc(O)c2ncccc12` [Nitroxoline, nitroxoline], the EC90 (SARS-CoV2 D614G) is reported as 9.9 ± 8 µM, the virus entry step (SARS-CoV-2 D614G) is reported as “inhibited this step similarly to HCQ” and the CC50 (in vitro) is reported as greater than 100 µM.
In the case of CLIK-148 [CLIK 148], the “Highest % of Virus Inhibition” value (SARS-CoV2 D614G; […], highest concentration tested 100 μM (CLIK-148 60 μM)) is reported as 64% and the CC50 (Huh7-hACE2) is reported as greater than 100 µM.
